Source: patent publication US8916702B2 (priority 2012, dated 2014)

Tested on: HCV pseudoparticles (genotype 1a HCV E1 and E2 envelope, H77C isolate)
Assay: microbe, parasite or virus in culture
Assay type: cell-based
Conditions: Hepatitis C virus, Huh-7, 48 h, HCV pseudoparticle infection of Huh7 cells, luciferase 2 days after infection; average of duplicates

Compound	EC50
CC(C)(CNC(=O)C(=O)Nc1ccc(-c2ccc(C(F)(F)F)cc2)cc1)CNC(=O)c1ccc(Nc2nc(NC3(c4ccc(Cl)cc4)CC3)nc(OCC(F)(F)F)n2)cc1 [Compound 1594]	0.05 nM
Cn1cnnc1-c1ccc(NC(=O)C(=O)NCC(C)(C)CNC(=O)c2ccc(Nc3nc(NC4(c5ccc(Cl)cc5)CC4)nc(OCC(F)(F)F)n3)cc2)cc1 [Compound 1601]	0.03 nM
CC(=O)c1ccc(NC(=O)C(=O)NCC(C)(C)CNC(=O)c2ccc(Nc3nc(NC4(c5ccc(Cl)cc5)CC4)nc(OCC(F)(F)F)n3)cc2)cc1 [Compound 1603]	0.04 nM
C=Cc1ccc(NC(=O)C(=O)NCC(C)(C)CNC(=O)c2ccc(Nc3nc(NC4(c5ccc(Cl)cc5)CC4)nc(OCC(F)(F)F)n3)cc2)cc1 [Compound 1604]	0.02 nM

Same assay, conditions: Hepatitis C virus, Huh-7, 48 h, HCV pseudoparticles (genotype 1a, H77C) in Huh7 cells; average of duplicate; luciferase 2 days after infection

Compound	EC50
CONC(=O)C(=O)NCC(C)(C)CNC(=O)c1ccc(Nc2nc(NC3(c4ccc(Cl)cc4)CC3)nc(OCC(F)(F)F)n2)cc1 [Compound 3002]	0.044 nM
Cc1cc(NC(=O)C(=O)NCC(C)(C)CNC(=O)c2ccc(Nc3nc(NC4(c5ccc(Cl)cc5)CC4)nc(OCC(F)(F)F)n3)cc2)sn1 [Compound 3010]	0.014 nM
CC(C)(CNC(=O)C(=O)NC1(c2ccc(F)cc2)CC1)CNC(=O)c1ccc(Nc2nc(NC3(c4ccc(Cl)cc4)CC3)nc(OCC(F)(F)F)n2)cc1 [Compound 3013]	0.066 nM
CC(C)(CNC(=O)C(=O)NS(=O)(=O)c1ccccc1)CNC(=O)c1ccc(Nc2nc(NC3(c4ccc(Cl)cc4)CC3)nc(OCC(F)(F)F)n2)cc1 [Compound 3021]	0.73 nM
CC(C)(CNC(=O)C(=O)Nc1ccnn1-c1ccccc1)CNC(=O)c1ccc(Nc2nc(NC3(c4ccc(Cl)cc4)CC3)nc(OCC(F)(F)F)n2)cc1 [Compound 3029]	0.071 nM
CC(C)(CNC(=O)C(=O)Nc1ccc2cccnc2c1)CNC(=O)c1ccc(Nc2nc(NC3(c4ccc(Cl)cc4)CC3)nc(OCC(F)(F)F)n2)cc1 [Compound 3034]	0.04 nM

Same assay, conditions: Hepatitis C virus, Huh-7, 48 h, read-out: Activity (EC50 class), HCV pseudoparticle infection of Huh7 cells, luciferase 2 days after infection; EC50 expressed as class A/B

Compound	EC50
CC(C)c1ccc(NC(=O)C(=O)NCC(C)(C)CNC(=O)c2ccc(Nc3nc(NC4(c5ccc(Cl)cc5)CC4)nc(OCC(F)(F)F)n3)cc2)cc1 [Compound 1589]	0.01 to 10 nM
CC(C)(CNC(=O)C(=O)Nc1ccc(-c2ccccc2)cc1)CNC(=O)c1ccc(Nc2nc(NC3(c4ccc(Cl)cc4)CC3)nc(OCC(F)(F)F)n2)cc1 [Compound 1590]	0.01 to 10 nM
CCc1cccc(NC(=O)C(=O)NCC(C)(C)CNC(=O)c2ccc(Nc3nc(NC4(c5ccc(Cl)cc5)CC4)nc(OCC(F)(F)F)n3)cc2)c1 [Compound 1591]	0.01 to 10 nM
CC(C)(CNC(=O)C(=O)Nc1ccc(CC(=O)N2CCCC2)cc1)CNC(=O)c1ccc(Nc2nc(NC3(c4ccc(Cl)cc4)CC3)nc(OCC(F)(F)F)n2)cc1 [Compound 1592]	0.01 to 10 nM
CC(C)(CNC(=O)C(=O)Nc1ccc(-c2ccc(C(F)(F)F)cc2)cc1)CNC(=O)c1ccc(Nc2nc(NC3(c4ccc(Cl)cc4)CC3)nc(OCC(F)(F)F)n2)cc1 [Compound 1594]	0.01 to 10 nM
CC(C)(CNC(=O)C(=O)Nc1ccc(-c2cscn2)cc1)CNC(=O)c1ccc(Nc2nc(NC3(c4ccc(Cl)cc4)CC3)nc(OCC(F)(F)F)n2)cc1 [Compound 1595]	0.01 to 10 nM
COc1cc(OC)nc(-c2ccc(NC(=O)C(=O)NCC(C)(C)CNC(=O)c3ccc(Nc4nc(NC5(c6ccc(Cl)cc6)CC5)nc(OCC(F)(F)F)n4)cc3)cc2)n1 [Compound 1596]	0.01 to 10 nM
Cc1cccc(NC(=O)C(=O)NCC(C)(C)CNC(=O)c2ccc(Nc3nc(NC4(c5ccc(Cl)cc5)CC4)nc(OCC(F)(F)F)n3)cc2)c1 [Compound 1597]	0.01 to 10 nM
CC(C)(CNC(=O)C(=O)Nc1ccc(-c2csnn2)cc1)CNC(=O)c1ccc(Nc2nc(NC3(c4ccc(Cl)cc4)CC3)nc(OCC(F)(F)F)n2)cc1 [Compound 1598]	0.01 to 10 nM
CN(C(=O)C(=O)NCC(C)(C)CNC(=O)c1ccc(Nc2nc(NC3(c4ccc(Cl)cc4)CC3)nc(OCC(F)(F)F)n2)cc1)c1ccc(F)cc1 [Compound 1599]	0.01 to 10 nM
Cc1ccc(NC(=O)C(=O)NCC2(CNC(=O)c3ccc(Nc4nc(NC5(c6ccc(Cl)cc6)CC5)nc(OCC(F)(F)F)n4)cc3)CC2)cc1 [Compound 1600]	0.01 to 10 nM
Cn1cnnc1-c1ccc(NC(=O)C(=O)NCC(C)(C)CNC(=O)c2ccc(Nc3nc(NC4(c5ccc(Cl)cc5)CC4)nc(OCC(F)(F)F)n3)cc2)cc1 [Compound 1601]	0.01 to 10 nM
CN(C)c1ccc(NC(=O)C(=O)NCC(C)(C)CNC(=O)c2ccc(Nc3nc(NC4(c5ccc(Cl)cc5)CC4)nc(OCC(F)(F)F)n3)cc2)cc1 [Compound 1602]	0.01 to 10 nM
CC(=O)c1ccc(NC(=O)C(=O)NCC(C)(C)CNC(=O)c2ccc(Nc3nc(NC4(c5ccc(Cl)cc5)CC4)nc(OCC(F)(F)F)n3)cc2)cc1 [Compound 1603]	0.01 to 10 nM
C=Cc1ccc(NC(=O)C(=O)NCC(C)(C)CNC(=O)c2ccc(Nc3nc(NC4(c5ccc(Cl)cc5)CC4)nc(OCC(F)(F)F)n3)cc2)cc1 [Compound 1604]	0.01 to 10 nM

Same assay, conditions: Hepatitis C virus, Huh-7, read-out: Activity (EC50 class), HCV pseudoparticles (genotype 1a, H77C) in Huh7 cells; EC50 expressed as class A/B

Compound	EC50
O=C(NCC1(CNC(=O)c2ccc(Nc3nc(NC4(c5ccc(Cl)cc5)CC4)nc(OCC(F)(F)F)n3)cc2)CC1)C(=O)Nc1cccc(F)c1 [Compound 3001]	0.01 to 10 nM
CONC(=O)C(=O)NCC(C)(C)CNC(=O)c1ccc(Nc2nc(NC3(c4ccc(Cl)cc4)CC3)nc(OCC(F)(F)F)n2)cc1 [Compound 3002]	0.01 to 10 nM
CC(C)(CNC(=O)C(=O)NCc1ccccc1Cl)CNC(=O)c1ccc(Nc2nc(NC3(c4ccc(Cl)cc4)CC3)nc(OCC(F)(F)F)n2)cc1 [Compound 3003]	0.01 to 10 nM
CC(C)(CNC(=O)C(=O)NCc1cccc(F)c1)CNC(=O)c1ccc(Nc2nc(NC3(c4ccc(Cl)cc4)CC3)nc(OCC(F)(F)F)n2)cc1 [Compound 3004]	0.01 to 10 nM
CC(C)(CNC(=O)C(=O)NCc1ccccc1F)CNC(=O)c1ccc(Nc2nc(NC3(c4ccc(Cl)cc4)CC3)nc(OCC(F)(F)F)n2)cc1 [Compound 3005]	0.01 to 10 nM
COc1ccccc1NC(=O)C(=O)NCC(C)(C)CNC(=O)c1ccc(Nc2nc(NC3(c4ccc(Cl)cc4)CC3)nc(OCC(F)(F)F)n2)cc1 [Compound 3006]	0.01 to 10 nM
COc1ccc(NC(=O)C(=O)NCC(C)(C)CNC(=O)c2ccc(Nc3nc(NC4(c5ccc(Cl)cc5)CC4)nc(OCC(F)(F)F)n3)cc2)cc1 [Compound 3007]	0.01 to 10 nM
COc1cccc(NC(=O)C(=O)NCC(C)(C)CNC(=O)c2ccc(Nc3nc(NC4(c5ccc(Cl)cc5)CC4)nc(OCC(F)(F)F)n3)cc2)c1 [Compound 3008]	0.01 to 10 nM
CC(C)(CNC(=O)C(=O)NCc1ccc(Cl)cc1)CNC(=O)c1ccc(Nc2nc(NC3(c4ccc(Cl)cc4)CC3)nc(OCC(F)(F)F)n2)cc1 [Compound 3009]	0.01 to 10 nM
Cc1cc(NC(=O)C(=O)NCC(C)(C)CNC(=O)c2ccc(Nc3nc(NC4(c5ccc(Cl)cc5)CC4)nc(OCC(F)(F)F)n3)cc2)sn1 [Compound 3010]	0.01 to 10 nM
CC(C)(CNC(=O)C(=O)Nc1ccc(C(F)(F)F)cc1)CNC(=O)c1ccc(Nc2nc(NC3(c4ccc(Cl)cc4)CC3)nc(OCC(F)(F)F)n2)cc1 [Compound 3011]	0.01 to 10 nM
COc1cccc(CNC(=O)C(=O)NCC(C)(C)CNC(=O)c2ccc(Nc3nc(NC4(c5ccc(Cl)cc5)CC4)nc(OCC(F)(F)F)n3)cc2)c1 [Compound 3012]	0.01 to 10 nM
CC(C)(CNC(=O)C(=O)NC1(c2ccc(F)cc2)CC1)CNC(=O)c1ccc(Nc2nc(NC3(c4ccc(Cl)cc4)CC3)nc(OCC(F)(F)F)n2)cc1 [Compound 3013]	0.01 to 10 nM
COc1ccc(-c2ccccc2)c(NC(=O)C(=O)NCC(C)(C)CNC(=O)c2ccc(Nc3nc(NC4(c5ccc(Cl)cc5)CC4)nc(OCC(F)(F)F)n3)cc2)c1 [Compound 3014]	0.01 to 10 nM
CC(C)(CNC(=O)C(=O)Nc1ccccc1-n1cccn1)CNC(=O)c1ccc(Nc2nc(NC3(c4ccc(Cl)cc4)CC3)nc(OCC(F)(F)F)n2)cc1 [Compound 3015]	0.01 to 10 nM
CC(C)(CNC(=O)C(=O)Nc1ccccc1N1CCCCC1)CNC(=O)c1ccc(Nc2nc(NC3(c4ccc(Cl)cc4)CC3)nc(OCC(F)(F)F)n2)cc1 [Compound 3016]	0.01 to 10 nM
CC(C)(CNC(=O)C(=O)NCc1ccc(-c2ccccc2)cc1)CNC(=O)c1ccc(Nc2nc(NC3(c4ccc(Cl)cc4)CC3)nc(OCC(F)(F)F)n2)cc1 [Compound 3017]	0.01 to 10 nM
CC(C)(CNC(=O)C(=O)Nc1cccc(C(F)(F)F)c1)CNC(=O)c1ccc(Nc2nc(NC3(c4ccc(Cl)cc4)CC3)nc(OCC(F)(F)F)n2)cc1 [Compound 3019]	0.01 to 10 nM

Compound	EC50
CC(C)(CNC(=O)C(=O)NCc1cccc(Cl)c1)CNC(=O)c1ccc(Nc2nc(NC3(c4ccc(Cl)cc4)CC3)nc(OCC(F)(F)F)n2)cc1 [Compound 3020]	0.01 to 10 nM
CC(C)(CNC(=O)C(=O)NS(=O)(=O)c1ccccc1)CNC(=O)c1ccc(Nc2nc(NC3(c4ccc(Cl)cc4)CC3)nc(OCC(F)(F)F)n2)cc1 [Compound 3021]	0.01 to 10 nM
CC(C)(CNC(=O)C(=O)Nc1ccc2cn[nH]c2c1)CNC(=O)c1ccc(Nc2nc(NC3(c4ccc(Cl)cc4)CC3)nc(OCC(F)(F)F)n2)cc1 [Compound 3022]	0.01 to 10 nM
Cn1ccc(NC(=O)C(=O)NCC(C)(C)CNC(=O)c2ccc(Nc3nc(NC4(c5ccc(Cl)cc5)CC4)nc(OCC(F)(F)F)n3)cc2)n1 [Compound 3023]	0.01 to 10 nM
Cn1ncc2ccc(NC(=O)C(=O)NCC(C)(C)CNC(=O)c3ccc(Nc4nc(NC5(c6ccc(Cl)cc6)CC5)nc(OCC(F)(F)F)n4)cc3)cc21 [Compound 3024]	0.01 to 10 nM
CNC(=O)CCc1ccc(NC(=O)C(=O)NCC(C)(C)CNC(=O)c2ccc(Nc3nc(NC4(c5ccc(Cl)cc5)CC4)nc(OCC(F)(F)F)n3)cc2)cc1 [Compound 3025]	0.01 to 10 nM
CC(C)(CNC(=O)C(=O)Nc1ccc2nccnc2c1)CNC(=O)c1ccc(Nc2nc(NC3(c4ccc(Cl)cc4)CC3)nc(OCC(F)(F)F)n2)cc1 [Compound 3026]	0.01 to 10 nM
CC(C)(CNC(=O)C(=O)Nc1ncco1)CNC(=O)c1ccc(Nc2nc(NC3(c4ccc(Cl)cc4)CC3)nc(OCC(F)(F)F)n2)cc1 [Compound 3027]	0.01 to 10 nM
CC(C)(CNC(=O)C(=O)Nc1ccnn1-c1ccccc1)CNC(=O)c1ccc(Nc2nc(NC3(c4ccc(Cl)cc4)CC3)nc(OCC(F)(F)F)n2)cc1 [Compound 3029]	0.01 to 10 nM
CC(C)(CNC(=O)C(=O)Nc1cccc2ccccc12)CNC(=O)c1ccc(Nc2nc(NC3(c4ccc(Cl)cc4)CC3)nc(OCC(F)(F)F)n2)cc1 [Compound 3030]	0.01 to 10 nM
CC(C)(CNC(=O)C(=O)NS(C)(=O)=O)CNC(=O)c1ccc(Nc2nc(NC3(c4ccc(Cl)cc4)CC3)nc(OCC(F)(F)F)n2)cc1 [Compound 3031]	0.01 to 10 nM
CC(C)(CNC(=O)C(=O)NS(=O)(=O)C1CC1)CNC(=O)c1ccc(Nc2nc(NC3(c4ccc(Cl)cc4)CC3)nc(OCC(F)(F)F)n2)cc1 [Compound 3032]	0.01 to 10 nM
CC(C)(CNC(=O)C(=O)Nc1cn[nH]c1)CNC(=O)c1ccc(Nc2nc(NC3(c4ccc(Cl)cc4)CC3)nc(OCC(F)(F)F)n2)cc1 [Compound 3033]	0.01 to 10 nM
CC(C)(CNC(=O)C(=O)Nc1ccc2cccnc2c1)CNC(=O)c1ccc(Nc2nc(NC3(c4ccc(Cl)cc4)CC3)nc(OCC(F)(F)F)n2)cc1 [Compound 3034]	0.01 to 10 nM
CC(C)(CNC(=O)C(=O)NCc1ccccc1-c1ccccc1)CNC(=O)c1ccc(Nc2nc(NC3(c4ccc(Cl)cc4)CC3)nc(OCC(F)(F)F)n2)cc1 [Compound 3035]	0.01 to 10 nM
Cn1nccc1NC(=O)C(=O)NCC(C)(C)CNC(=O)c1ccc(Nc2nc(NC3(c4ccc(Cl)cc4)CC3)nc(OCC(F)(F)F)n2)cc1 [Compound 3036]	0.01 to 10 nM
CNC(=O)CCc1cccc(NC(=O)C(=O)NCC(C)(C)CNC(=O)c2ccc(Nc3nc(NC4(c5ccc(Cl)cc5)CC4)nc(OCC(F)(F)F)n3)cc2)c1 [Compound 3037]	0.01 to 10 nM
